Data reported in the supplement of paper PMC10307832.

Legend:
Test in all cases: relative viability (nuclei count vs DMSO), 5 days (fraction); higher = more cells survive
RAF265 + Luminespib = compound: Cn1c(Nc2ccc(C(F)(F)F)cc2)nc2cc(Oc3ccnc(-c4ncc(C(F)(F)F)[nH]4)c3)ccc21 [RAF265] + CCNC(=O)c1noc(-c2cc(C(C)C)c(O)cc2O)c1-c1ccc(CN2CCOCC2)cc1 [Luminespib] (partner 0.01 µM)
Summary of the method: (§1)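 Dosing by pin tool came one day after lung cancer cell lines were seeded in 1536-well plates, using either one drug or a fixed anchor-drug dose plus five library-drug doses (not always all listed) in √10 steps. After 5 days, nuclei were counted on 4× images. Relative viability is treated-well nuclei count divided by vehicle-well nuclei count, and values are medians of duplicate plates.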

Doramapimod + Trametinib = compound: Cc1ccc(-n2nc(C(C)(C)C)cc2NC(=O)Nc2ccc(OCCN3CCOCC3)c3ccccc23)cc1 [Doramapimod] + CC(=O)Nc1cccc(-n2c(=O)n(C3CC3)c(=O)c3c(Nc4ccc(I)cc4F)n(C)c(=O)c(C)c32)c1 [Trametinib] (partner 0.02 µM)
Summary of the method: as §1

Doramapimod + Alpelisib = compound: Cc1ccc(-n2nc(C(C)(C)C)cc2NC(=O)Nc2ccc(OCCN3CCOCC3)c3ccccc23)cc1 [Doramapimod] + Cc1nc(NC(=O)N2CCC[C@H]2C(N)=O)sc1-c1ccnc(C(C)(C)C(F)(F)F)c1 [Alpelisib] (partner 2 µM)
Summary of the method: as §1

IPA-3 + Palbociclib = compound: C1=CC=C2C(=C1)C=CC(=C2SSC3=C(C=CC4=CC=CC=C43)O)O [IPA-3] + CC(=O)c1c(C)c2cnc(Nc3ccc(N4CCNCC4)cn3)nc2n(C2CCCC2)c1=O [Palbociclib] (partner 0.5 µM)
Summary of the method: as §1

| Cell Line | relative viability (RAF265 + Luminespib; first compound 0.01 µM) | relative viability (RAF265 + Luminespib; first compound 0.03162 µM) | relative viability (RAF265 + Luminespib; first compound 0.1 µM) | relative viability (RAF265 + Luminespib; first compound 0.3162 µM) | relative viability (RAF265 + Luminespib; first compound 1 µM) | relative viability (Doramapimod + Trametinib; first compound 0.02 µM) | relative viability (Doramapimod + Trametinib; first compound 0.06325 µM) | relative viability (Doramapimod + Trametinib; first compound 0.2 µM) | relative viability (Doramapimod + Trametinib; first compound 0.6325 µM) | relative viability (Doramapimod + Trametinib; first compound 2 µM) | relative viability (Doramapimod + Alpelisib; first compound 0.02 µM) | relative viability (Doramapimod + Alpelisib; first compound 0.06325 µM) | relative viability (Doramapimod + Alpelisib; first compound 0.2 µM) | relative viability (Doramapimod + Alpelisib; first compound 0.6325 µM) | relative viability (Doramapimod + Alpelisib; first compound 2 µM) | relative viability (IPA-3 + Palbociclib; first compound 0.2 µM) | relative viability (IPA-3 + Palbociclib; first compound 0.6325 µM) | relative viability (IPA-3 + Palbociclib; first compound 2 µM) | relative viability (IPA-3 + Palbociclib; first compound 6.325 µM) | relative viability (IPA-3 + Palbociclib; first compound 20 µM) |
| --- | --- | --- | --- | --- | --- | --- | --- | --- | --- | --- | --- | --- | --- | --- | --- | --- | --- | --- | --- | --- |
| NCI-H838 | 0.284 | 0.226 | 0.344 | 0.309 | 0.288 | 0.493 | 0.549 | 0.506 | 0.56 | 0.411 | 0.973 | 0.953 | 1 | 1.09 | 0.971 | 0.278 | 0.202 | 0.209 | 0.225 | 0.204 |
| LK-2 | 0.172 | 0.227 | 0.196 | 0.236 | 0.191 | 0.587 | 0.727 | 0.715 | 0.31 | 0.647 | 1.03 | 0.906 | 0.751 | 0.737 | 0.76 | 0.847 | 0.643 | 0.709 | 0.818 | 0.706 |
| NCI-H322M | 0.868 | 0.722 | 0.545 | 0.305 | 0.304 | 0.429 | 0.519 | 0.541 | 0.524 | 0.498 | 0.774 | 0.734 | 0.785 | 0.801 | 0.933 | 0.48 | 0.452 | 0.433 | 0.525 | 0.514 |
| NCI-H661 | 0.973 | 0.694 | 0.658 | 0.486 | 0.412 | 0.642 | 0.58 | 0.598 | 0.732 | 0.512 | 0.593 | 0.732 | 0.618 | 1.04 | 0.515 | 0.406 | 0.434 | 0.389 | 0.435 | 0.366 |
| NCI-H2228 | 0.191 | 0.118 | 0.186 | 0.126 | 0.0971 | 0.391 | 0.44 | 0.46 | 0.519 | 0.484 | 0.911 | 0.518 | 0.619 | 0.753 | 0.649 | 0.825 | 0.71 | 0.474 | 1 | 0.752 |
| NCI-H1395 | 0.633 | 0.726 | 0.7 | 0.658 | 0.509 | 0.999 | 0.967 | 1.05 | 1.08 | 0.946 | 1.07 | 1.08 | 0.93 | 1.14 | 0.938 | 0.681 | 0.524 | 0.634 | 0.608 | 0.61 |
| NCI-H520 | 0.211 | 0.232 | 0.235 | 0.208 | 0.215 | 0.648 | 0.59 | 0.72 | 0.723 | 0.536 | 0.883 | 0.822 | 0.954 | 0.832 | 0.807 | 0.229 | 0.206 | – | 0.283 | 0.186 |
| NCI-H441 | 0.368 | 0.29 | 0.321 | 0.263 | 0.327 | 0.511 | 0.524 | 0.457 | 0.568 | 0.366 | 0.694 | – | 0.813 | 0.704 | 0.779 | 0.244 | 0.213 | 0.198 | 0.169 | 0.185 |
